{
  "source": "patent US9011853B2",
  "about": "“B7-H4 fusion proteins and methods of use thereof” (Amplimmune, Inc., priority 2009, dated 2015)",
  "key": {"[1]": {"test_system": "TNFα, IL6, and chemokine (MCP-1)", "experiment": "Plasma proinflammatory molecules in CIA mice, BD Cytometric Bead Array", "assay_type": "in vivo, mouse", "source_text": "Plasma was collected on day 33 from mice treated as described in Example 3 and analyzed for proinflammatory molecules, e.g. TNFα, IL6, and chemokine (MCP-1) using the BD™ Cytometric Bead Array (CBA) Flex Sets."}, "[2]": {"test_system": "lymph node cells and splenocytes", "experiment": "In vitro antigen-specific recall responses of cells from treated R-EAE mice", "assay_type": "in vivo, mouse", "protocol": "Draining lymph nodes (axillary, brachial, and inguinal) were harvested, and single cell suspensions were obtained by mashing through sterile 60-mesh wire screens. In 96-well microtiter plates, 5×10^5 erythrocyte-free (Tris-NH4Cl-treated) lymph node cells per well were incubated in supplemented culture medium with or without antigen at 37° C. in 7% CO2 for […] and then pulsed with 1 μCi/well of [^3H]-Thymidine for the final 48 h of culture. Proliferation was determined by uptake of [^3H]-Thymidine detected using a Topcount Microplate Scintillation Counter (Packard Instruments, Meridan, Conn.). Results are expressed as the mean of triplicate cultures from individual animal±SEM. Supernatants were collected at 72 hr for cytokine analysis. Cytokine measurements were performed using the Mouse Cytokine 10-Plex system and Luminex Liquidchip analyzer (Qiagen, Valencia, Calif.) or ELISA.\nLymph nodes were isolated from the murine B7-H4-Ig and Control IgG injected EAE mice as described above. T cells were harvested and were elicited with PLP139-151, the disease inducing dominant epitope, and PLP178-191, the spread epitope-specific peptide, in vitro. [^3H]-thymidine was added to the in vitro stimulation assay to analyze T cell proliferation.\nLymph nodes were isolated from Control IgG and murine B7-H4-Ig treated mice as described above. T cells were harvested and immune responses were elicited with PLP139-151, the disease inducing dominant peptide, and PLP178-191, the spread epitope peptide, in vitro. Supernatant was collected and analyzed for IFN-γ via commercially available ELISA kit.\nDraining lymph nodes were harvested from the animals, and single cell suspensions prepared as described above and reactivated in vitro in the presence of anti-CD3 (0.1-10 μg/mL), PLP139-151 (1-20 μg/mL), or OVA323-339 (1-20 μg/mL). T cell proliferation in vitro was analyzed by [^3H] thymidine incorporation.\nThe impact of B7-H4-Ig treatment on epitope spreading was also examined. To do so, spleens and draining lymph nodes were collected from the same mice that were analyzed for the number and phenotype of CD4^+ T cells. SJL mouse were immunized with 50 μg of PLP139-151 peptide emulsified in CFA. Mice were treated B7-H4-Ig during remission: 60 or 100 ug per dose, 3 doses/wk, for 2 weeks (6 doses). On Day 35 total splenocytes and lymph node cells (5×10^5 cells per 200 ul culture) were activated in separate wells per mouse in the presence of anti-CD3 (1 ug/ml), PLP139-151 or PLP178-191 (20 μg/mL). At 24 hours following the initiation of culture, 1 μCi of ^3[H] tritiate thymidine was added to each well and wells were analyzed at 72 hours post the initiation of culture. This presented as the mean CPM. […] Therefore, B7-H4-Ig treatment during remission of ongoing R-EAE in SJL mice appears to decrease epitope spreading via an increase in the number of Treg cells. […] The higher dose appears more efficacious to lower the disease score at later time points (beyond Day 42 post disease initiation)."}, "DBA/1J mice": {"test_system": "DBA/1J mice", "experiment": "CIA therapeutic model, arthritis score", "assay_type": "in vivo, mouse", "details": "300 μg IP 3 times a week for 4 weeks from CII rechallenge (day 21); days 38 and beyond; vs vehicle (FIG. 5)", "protocol": "FIG. 4 outlines a brief experimental design of the CIA therapeutic study. DBA/1J mice were first immunized with chicken CII emulsified in CFA. Twenty one days later, the mice were rechallenged with CII emulsified in IFA and randomized into 2 groups. Group 1 (n=10) were IP injected with 300 μg of B7-H4-Ig, 3 times a week for 4 weeks. Group 2 (n=10) were injected with vehicle. Mouse paws/joints were monitored and scored 3 times a week."}, "[3]": {"test_system": "naïve CD4^+CD62L^+ T cells", "experiment": "In vitro Th2 polarization, proliferation", "assay_type": "cell-based, mouse", "details": "Th2 conditions: IL-2, IL-4, anti-IL12 and anti-IFN-γ (FIG. 23)", "source_text": "B7-H4-Ig has no impact on Th2 cells using the same target, naïve CD4^+CD62L^+ T cells, under Th2 in vitro polarization conditions: IL-2, IL-4, anti-IL12 and anti-IFN-γ (FIG. 23)."}, "[4]": {"test_system": "CD4^+CD62L^+ naïve T cells", "experiment": "Mouse Th17 assay, IL-17A ELISA", "assay_type": "cell-based", "details": "20, 10, 5, 2.5, and 1.25 μg/mL (FIGS. 57, 58)", "protocol": "CD4^+CD62L^+ naïve T cells were isolated from BALB/c mice as in the above examples, and activated by anti-CD3 and anti-CD28 bound beads in the presence of Th17 differntiation cocktail (TGF-β1 (10 ng/mL), IL-6 (50 ng/mL), IL-23 (4 ng/mL), anti-IL-4 (10 μg/mL), anti-IFN-γ (5 μg/mL) and anti-IL-2 (5 μg/mL)). Murine B7-H4-Ig (10 μg/mL) or retinoic acid (RA) (10 μM) was added to the cultures on day 0, day 1, or day 2 of the 4 day culture. IL-17A levels were measured by ELISA at the end of the 4 day culture.\nThe Th17 assay is 4 days in duration. In order to determine when B7-H4-Ig is acting, the Th17 assay was performed with the addition of 10 μg/mL of murine B7-H4-Ig, 10 μg/mL of mouse IgG control, or […] retinoic acid on Day 0, Day 1, or Day 2.\nPeripheral T cells were obtained from spleens and inguinal lymph nodes of 6-9 week old BALB/c mice by mechanical disruption through a cell strainer followed by red blood cell (RBC) lysis.\nNaïve helper T cells (CD4^+CD62L^+) were obtained using the Miltenyi Biotec microbead system. CD4^+ cells are enriched by negative selection, and followed by a positive selection of CD62L^+. In some experiments CD25+ cells were also depleted.\nAfter selection, cells are activated in vitro with anti-CD3/CD28 beads at a 1:1 cell:bead ratio in the presence of the TH17 differentiation cocktail (TGF-β1 (10 ng/ml), IL-6 (50 ng/ml), IL-23 (4 ng/ml), anti-IL-2 (5 μg/ml), anti-IL-4 (10 μg/ml), and anti-IFN-γ (5 μg/ml)). Murine B7-H4-Ig is added at a final concentration of 1.25-20 μg/ml. Retinoic acid (RA) is used as positive control and mouse IgG is used as a negative control.\nAfter 4 days of culture, cultures are spun down and supernatants are harvested and stored at <−65° C. until analyzed for IL-17A levels by ELISA."}, "[5]": {"details": "Day 35 splenocytes and lymph node cells, treated during remission 60 or 100 ug per dose, 3 doses/wk, 2 weeks (FIGS. 45A, 45B)"}},
  "data": [
    {"substance": "B7-H4-Ig: B7-H4 extracellular domain fused to Ig Fc; bare label is the human protein in Example 3, murine protein in Examples 1, 2, 5, 7-11", "values": [
      {"measurement": "plasma TNFα production", "setting": "[1]; plasma day 33, vs vehicle control (FIG. 17A)", "value": "significantly reduced"},
      {"measurement": "plasma IL6 production", "setting": "[1]; plasma day 33, vs vehicle control (FIG. 17B)", "value": "significantly reduced"},
      {"measurement": "plasma MCP-1 production", "setting": "[1]; plasma day 33, vs vehicle control (FIG. 17C)", "value": "significantly reduced"},
      {"measurement": "proliferative response to PLP139-151", "setting": "[2]; [5]", "value": "decreased the proliferative response"},
      {"measurement": "proliferative response to PLP178-191", "setting": "[2]; [5]", "value": "decreased the proliferative response"},
      {"measurement": "IFN-γ production in ex vivo T cell recall with PLP139-151 peptide", "setting": "[2]; administered on Day 0 (FIG. 38)", "value": "specific inhibition of immune response to PLP139-151 peptide"},
      {"measurement": "T cell proliferation when stimulated with anti-CD3", "setting": "[2]; draining lymph nodes, Day 10 study (FIG. 40)", "value": "robust T cell proliferation"},
      {"measurement": "T cell response to PLP139-151 peptide stimulation ([3H] thymidine)", "setting": "[2]; draining lymph nodes, Day 10 study, both 3 and 15 mg/kg doses (FIG. 40)", "value": "little to no response"},
      {"measurement": "overall arthritis scores", "setting": "DBA/1J mice", "value": "significantly lower than the ones of vehicle injected CIA mice"},
      {"measurement": "impact on Th2 cells (proliferation)", "setting": "[3]", "value": "no impact"}
    ]},
    {"substance": "Human B7-H4-Ig: human B7-H4 extracellular domain fused to hinge, CH2 and CH3 regions of human immunoglobulin Cγ1 chain; representative SEQ ID NOs:114-137", "values": [
      {"measurement": "activity on mouse cells in the Th17 assay (IL-17A)", "setting": "[4]", "value": "active"}
    ]}
  ]
}
